Experimental data: patent US20150352075A1, “Treatment of Alzheimer's and Cognitive Impairment With Andrographolides” (INNOBIOSCIENCE, LLC, priority 2013, published 2015)

How the values were obtained:
[1] = system: APPswe/PS-1 double transgenic mice; test: LTP by TBS in hippocampal CA1 slices from treated transgenic mice; format: in vivo; details: slices from both sets (7- and 12-month-old) of treated APPswe/PS-1 mice
[2] = system: APPswe/PS-1 double transgenic mice; test: Immunoblot of synaptic proteins in hippocampus and cortex of treated mice; format: in vivo
[3] = system: APPswe/PS-1 double transgenic mice; test: Thioflavine-S staining of amyloid plaques in brain of treated mice; format: in vivo
[4] = system: Wnt/β-catenin pathway in cultured rat hippocampal neurons; test: Wnt/β-catenin pathway activation in cultured hippocampal neurons (western blot, immunofluorescence); format: cell-based
Method: Primary culture of rat hippocampal neurons. Rat hippocampal cultures were prepared as previously described (Arrazola et al, 2009). On day 3 of culture, hippocampal cells were treated with […] 1-b-Darabinofuranosylcytosine (AraC) during 24 h to reduce the number of proliferating non-neuronal cells. […] PCR-ARRAY. RNA from hippocampal neurons was extracted using Trizol. Quantification and purity of RNA preparations were checked by absorbance using Nanodrop ND-2000. Only preparations with a 260/280 nm ratio ≧1.8, a 260/230 nm ratio ≧1.7 and no sign of RNA degradations, verified by agarose gel electrophoresis with Gel Red™ were used. Genomic DNA was degraded. Using RT2First-Strand cDNA Synthesis kit (SuperArray), 1 ng total RNA was reverse transcribed and then real-time PCR was performed by adding cDNA directly to PCR Master Mix, containing SYBR Green and ROX. The mixtures were then aliquoted into a 96-well PCR array plates, which profiles the expression of 84 Wnt target genes from rat. The PCR was run on ABI StepOnePlus, with 1 cycle of 10 min at 95° C. followed by 40 cycles of 15s at 95° C. and 1 min at 60° C. Cycle threshold (Ct) values were calculated for all the genes present on the array (Schmittgen & Livak, 2008). Treatment of neuronal cultures. Primary hippocampal cultures of neurons 14 DIV were washed twice in neurobasal medium and maintained for 1 hour. Next ANDRO (10 μM) and 6-BIO (10 μM) were added to different time periods.
Following a time-course treatment, neurons were washed with cold PBS and harvested in 600 μL of cold homogenization buffer (10 mM HEPES pH 7.9; 1.5 mM MgCl2; 10 mM KCl; 1 mM DTT). The cells were disrupted by 20 passed, back and forth, through a syringe of 1mL. Lysates were centrifuged for 6 minutes at 700 g at 4° C. and the supernatant was removed. The precipitate was washed in 100 μL of buffer (20 mM HEPES pH=7.9; 420 mM NaCl; 1.5 mM MgCl2; 0.2 mM EDTA; 1 mM DTT; 25% glicerol) and centrifuged again to generate nuclear fraction. Cytosolic fractions were generated from the supernatantat 100.000 g […] 4° C. Both buffers were supplemented with protease inhibitors and serine-phosphatase. Nuclear and cytosolic fractions were subsequently subjected to western blotting.
(§1) The samples were dissected on ice and immediately frozen in liquid nitrogen or processed has previously detailed (Inestrosa et al, 2011). Briefly, tissues were homogenized in RIPA buffer (10 mM Tris-Cl, pH 7.4, EDTA 5 mM, 1% NP-40, 1% sodium deoxycholate, and 1% SDS) supplemented with a protease inhibitor mixture (1 mM PMSF, 2 μg/mL aprotinin, 1 μg/mL pepstatin and 10 μg/mL benzamidine) and phosphatase inhibitors (25 mMNaF, 100 mM Na3VO4, 1 mM EDTA and 30 μM Na4P207) using a Potter homogenizator and then passed sequentially through different caliber syringes. Protein samples were centrifuged at 14000 rpm at 4° C. twice for 15 min. Protein concentration was determined using the BCA Protein Assay Kit (Pierce). Samples were resolved by […] 10% SDS-PAGE and transferred to a PVDF membrane. The reactions were followed by incubation with anti-mouse, anti-goat or anti-rabbit IgG peroxidase conjugated (Pierce, Rockford, Ill.) and developed using an ECL kit (Western Lightning Plus ECL, PerkinElmer).
Hippocampal neurons were seeded onto poly-L-lysine-coated cover slips in 24-well culture plates at a density of 5×10^4 cells per well, as described previously (Arrazola et al, 2009; Chacon et al, 2008). A mouse monoclonal anti-b-catenin was used. Cells were extensively washed with PBS and then incubated with Alexa 488-conjugated anti-mouse IgG for 1 h at room temperature. Cells were mounted in mounting medium and analyzed in a Carl-Zeiss Confocal Laser Microscope.

[5] = system: Wnt/β-catenin pathway in hippocampal slices; test: Wnt pathway mechanism in hippocampal slices (sFRP, Dkk-1, Dvl-3 mobility shift, time course); format: cell-based, mice
Method: Slice preparation. […] Transverse slices (250-300 μm) from the dorsal hippocampus were cut under oxygen-saturated cold artificial cerebrospinal fluid using a Vibroslice microtome (VSL, World Precision Instruments, Inc WPI, Sarasota, Fla.). After obtained, slices were incubated in ACSF for at least than one hour at room temperature, in order to stabilize activity. In every moment during dissection, slicing and experimentation slices were oxygenated with 95% oxygen-5% carbon dioxide.
as §1, with “Briefly,” for “The samples were dissected on ice and immediately frozen in liquid nitrogen or processed has previously detailed (Inestrosa et al, 2011). Briefly,”, “Protein samples were centrifuged at 14000 rpm at 4° C. twice for 15 min.” left out

[6] = Side effects in treated animals; details: in vivo
[7] = young APPswe/PS-1 mice, vs controls
[8] = hippocampal neurons, ANDRO 10 μM
[9] = hippocampal neurons, different concentrations for 6 h

Structure (SMILES): C=C1CC[C@@H]2C(C)(CO)C(O)CC[C@@]2(C)C1C/C=C1/C(=O)OCC1O (stereo in doubt) [ANDRO, 3-(2-(Decahydro-6-hydroxy-5-(hydroxymethyl)-5,8a-dimethyl-2-methylenenaphthyl)ethylidene)dihydro-4-hydroxyfuran-2(3H)-one]
- LTP induction in CA3-CA1 transmission [1]: have the property to induce a LTP that is maintained for 1 h
- PSD-95 and GluA2 levels ([2]; mature Tg mice): increase of PSD-95 and GluA2 levels
- total levels of pre-synaptic proteins SYP and VAMP ([2]; young APPswe/PS-1 mice): unaltered
- levels of post-synaptic proteins (Shank, GluN2B, GluA2, PSD-95) ([2]; young APPswe/PS-1 mice, hippocampus and cortex): significantly recovers the post-synaptic proteins
- plaque size distribution (cumulative frequency) ([3]; 7 month-old APPswe/PS-1 mice): shift in their distribution toward smaller plaque size
- amyloid plaques stained with Th-S ([3]; 7 month-old APPswe/PS-1 mice, cortex and hippocampus, vs untreated): reduction of amyloid plaques stained with Th-S
- amyloid deposit levels (amyloid burden area) ([3]; FIG. 3F mice (printed young; legend: old, 12 month-old), hippocampus or cortex): no change in amyloid deposit levels
- most immature plaques (type 1) [3, 7]: increase significantly
- type 2a and 2c amyloid plaques in total brain [3, 7]: no significant differences
- type 2b amyloid plaques in brain [3, 7]: significantly decreased
- β-catenin levels by immunofluorescence ([4]; 5 μM for 6 h, neurons at 14 DIV): increased β-catenin levels
- time of maximum increase of the inhibited form of GSK-3β [4, 8]: 6 h
- time of peak accumulation of cytoplasmic and nuclear β-catenin [4, 8]: 9 h
- accumulation of β-catenin [4, 9]: accumulation of β-catenin in a concentration-dependent manner
- active form of GSK-3β (phospho-Tyr-216) [4, 9]: decrease in the active form (phosphor-Tyr-216)
- inhibited form of GSK-3β (phospho-Ser-9) [4, 9]: increase in the inhibited form of the enzyme (phospho-Ser-9)
- speed of increase in GSK3β pSer-9 and decrease in pTyr-216 ([5]; compared to Wnt-3a treatment): faster
- mobility shift (phosphorylation) of Dvl-3 ([5]; hippocampal slices, 1 h, western blot): does not induce a mobility shift of Dvl-3
- time at which total levels of β-catenin increased ([5]; slices from 2 month-old wild-type mice, 5 μM ANDRO, Wnt3a conditioned medium or 10 μM 6-B10): 15 min
- side effects in animals [6]: seems not to cause side effects in animals
